Laboratory results reported in patent US20090227489A1, “STAT3 Agonists and Antagonists and Therapeutic Uses Thereof” (Johns Hopkins University, priority 2000, published 2009).

System: B16 cells
Test: Macrophage-mediated antitumor cytotoxicity (3H-TdR incorporation)
Assay type: cell-based, murine
Details: added to macrophages before supernatant; NMA 0.5 mM, catalase 500 U/ml
Procedure: Macrophages (˜1×10^5) were incubated in 50% supernatants from Stat3β-transfected (S-Stat3β) or GFP-vector transfected (S-GFP) B16 cells for 6 h. The supernatants were replaced by normal complete medium and wild-type B16 cells (1×10^4) were added.
Macrophage-mediated antitumor cytotoxicity. Antitumor cytotoxic activity of macrophages against B16 cells was determined by inhibition of DNA synthesis. Briefly, peritoneal macrophages (1×10^5) were incubated in 50% supernatants derived from either wild type, pIRES-Stat3β or pIRES-GFP transfected, or UV-irradiated B16 cells for 6 h. After replacing the supernatants with normal complete medium, B16 cells (1.0×10^4/well) were added and co-cultured for 48 h with and without peritoneal macrophages. For some experiments, NOS inhibitor, N-monomethyl-L-arginine (NMA) (0.5 mM, Sigma) or H202 quencher, catalase (500 U/ml, Boehringer Mannheim, Indianapolis, Ind.) were added to macrophages before adding supernatant from Stat3β-transfected B16 cells. The co-cultured cells were pulsed with 3H-thymidine (3H-TdR) (0.25 μCi/well) during the last 6 h of incubation to estimate DNA synthesis. 3H-TdR incorporation was determined using a liquid scintillation β-counter (Pharmacia Wallac, Finland).
3H-thymidine incorporation to estimate DNA synthesis and cell proliferation was performed.

catalase
effect on macrophage-mediated cytostasis induced by Stat3β supernatant: does not influence macrophage cytotoxic effects against B16 cells
